Article PMC12431657, “Discovery and mechanistic insights of dibenzoylmethane as a broad spectrum inhibitor of coronavirus” (PLOS Pathogens, 2025)
Values joined by “and” are separate entries in the source; they are usually repeats but may differ in a detail not shown here. Identical values can stand only once. Like-named read-outs stand apart in the source and are kept apart here.

Columns and labels:
[1] = erythromycin estolate exceeding 300 mpk, veratramine exceeding 10 mpk; cited from earlier work
[2] = tested on: HCoV-OC43; test: Antiviral activity in vitro, qRT-PCR, HCoV-OC43 in Huh-7 cells; format: cell-based; conditions: for EC50: Betacoronavirus 1, OC43, Huh-7, 24 h, read-out: EC50 HCoV-OC43 (Huh-7); for HCoV-OC43, Huh-7: inhibition at the concentration (Fig2B): replicates
[3] = tested on: HCoV-229E; test: Antiviral activity in vitro, viral RNA copies by qRT-PCR, HCoV-229E in Huh-7 cells; format: cell-based; conditions: for EC50: Human coronavirus 229E, Huh-7, 24 h, read-out: EC50 HCoV-229E (Huh-7)
[4] = tested on: HCoV-229E; test: Antiviral activity in vitro, qRT-PCR, HCoV-229E in MRC-5 cells; format: cell-based; conditions: for EC50: Human coronavirus 229E, MRC5, 24 h, read-out: EC50 HCoV-229E (MRC-5); for HCoV-229E, MRC-5: inhibition at the concentration (Fig2B): replicates
[5] = tested on: HCoV-OC43
[6] = tested on: HCoV-OC43; test: Antiviral activity in vitro, qRT-PCR, HCoV-OC43 in RD cells; format: cell-based; conditions: for EC50: Betacoronavirus 1, OC43, RD, 24 h, read-out: EC50 HCoV-OC43 (RD)
[7] = tested on: HCoV-OC43; test: Time-of-addition assay; format: cell-based; conditions: replicates
Procedure: To obtain further insight into the stage at which DBM inhibits the replication of HCoV-OC43 and other HCoVs, RD cells were incubated with compounds, including DBM, remdesivir (RDV), and chloroquine (CQ), at different stages of viral infection. Viral RNA from the supernatant was extracted and quantitatively analysed via qRT-PCR. […] For the viral binding assay, cells were cultured in the presence or absence of DBM at different concentrations for 1 hour before being infected with HCoV-OC43 at an MOI of 50, and then were placed on ice for 2 hours for the viral particles to bind to the membrane of the host cells, followed by washing with PBS. […] In addition to binding to receptors from host cells, the spike proteins of HCoV-OC43 could also trigger membrane fusion when HCoV-OC43 spike plasmid-transfected 293T cells were seeded together with RD cells as target cells, and the addition of DBM had no effect on this process (S5C Fig). To examine whether DBM inhibits viral internalisation, cells were inoculated with HCoV-OC43 for 1 hour on ice before being treated with either DBM or DMSO, and CQ was included to prevent endosomal acidification. Subsequently, HCoV-OC43 nucleocapsid proteins were immunostained with CoraLite Plus 488 to assess viral internalisation via confocal microscopy. […] To determine whether DBM influences viral release, we quantified viral RNA both intracellularly and in the supernatant.
To evaluate the effects of DBM on the life cycle of HCoV-229E and HCoV-OC43, fresh culture medium containing 0.6 μM DBM, 0.1 μM remdesivir (RDV), or 10 μM chloroquine (CQ) was supplemented with preseeded cells at different time points relative to infection (entry group: 0 to –2 hours; postinfection group: 2–12 hours; and full-time group: 0 to –12 hours). DMSO served as the control. At 24 hours postinfection, the number of intracellular virus RNA copies was quantified by qRT-PCR as previously described.

[8] = tested on: HCoV-OC43; format: cell-based; conditions: transient expression or RDV control, replicates
[9] = tested on: Huh-7 cells; design: unit not given beside the values
[10] = tested on: Huh-7 cells; test: Cytotoxicity assay (CCK-8), Huh-7 cells
[11] = conc. 0.1 (unit not given), replicates
[12] = conc. 0.2 (unit not given), replicates
[13] = conc. 0.7 (unit not given), replicates
[14] = conc. 2.2 (unit not given), replicates
[15] = conc. 6.7 (unit not given), replicates
[16] = conc. 20 (unit not given), replicates

## CCC(=O)O[C@H]1[C@H](O[C@@H]2[C@@H](C)[C@H](O[C@H]3C[C@@](C)(OC)[C@@H](O)[C@H](C)O3)[C@@H](C)C(=O)O[C@H](CC)[C@@](C)(O)[C@H](O)[C@@H](C)C(=O)[C@H](C)C[C@@]2(C)O)O[C@H](C)C[C@@H]1N(C)C [Erythromycin estolate, erythromycin estolate, reference compound]
[1]
  safe use in antitumour mouse models: safely used
[2]
  EC50: 730 nM
[2]; conc. 0.2 (unit not given)
  HCoV-OC43, Huh-7: inhibition at the concentration (Fig2B): 18.4 and 11.5 and -3.5
[2]; conc. 0.7 (unit not given)
  HCoV-OC43, Huh-7: inhibition at the concentration (Fig2B): 62.9 and 63.5 and 57.4
[2]; conc. 2.2 (unit not given)
  HCoV-OC43, Huh-7: inhibition at the concentration (Fig2B): 73.5 and 73.6 and 72.3
[2]; conc. 6.7 (unit not given)
  HCoV-OC43, Huh-7: inhibition at the concentration (Fig2B): 95.6 and 95.5 and 95.7
[2]; conc. 20.0 (unit not given)
  HCoV-OC43, Huh-7: inhibition at the concentration (Fig2B): 98.3 (2×) and 98.1
[3]
  EC50: 3040 nM
[3]; [11]
  EC50 (229E, Huh-7): inhibition at the concentration: 56.8 and 60.1 and 43.4
[3]; [12]
  EC50 (229E, Huh-7): inhibition at the concentration: 31.4 and 41.8 and 52.9
[3]; [13]
  EC50 (229E, Huh-7): inhibition at the concentration: 61.1 and 42.4 and 25.7
[3]; [14]
  EC50 (229E, Huh-7): inhibition at the concentration: 61.7 and 57.1 and 74.9
[3]; [15]
  EC50 (229E, Huh-7): inhibition at the concentration: 79.9 and 80.4 and 68.3
[3]; [16]
  EC50 (229E, Huh-7): inhibition at the concentration: 82.8 and 90.2 and 91.5
[4]
  EC50: 9210 nM
[4]; conc. 0.1 (unit not given)
  HCoV-229E, MRC-5: inhibition at the concentration (Fig2B): 0.6 and 0.5 and 1.3
[4]; conc. 0.2 (unit not given)
  HCoV-229E, MRC-5: inhibition at the concentration (Fig2B): 18.6 and 2.4 and -3.2
[4]; conc. 0.7 (unit not given)
  HCoV-229E, MRC-5: inhibition at the concentration (Fig2B): 2.2 and 1.5 and 26.7
[4]; conc. 2.2 (unit not given)
  HCoV-229E, MRC-5: inhibition at the concentration (Fig2B): 3.2 and -1.4 and 0.1
[4]; conc. 6.7 (unit not given)
  HCoV-229E, MRC-5: inhibition at the concentration (Fig2B): 0.7 and 0.9 and 1.2
[4]; conc. 20.0 (unit not given)
  HCoV-229E, MRC-5: inhibition at the concentration (Fig2B): 90.1 and 91.7 and 86.2
[5]; columbianadin 50 mpk QD, erythromycin estolate 300 mpk QD
  number of viral RNA copies in HCoV-OC43-infected mice: did not significantly reduce
[6]
  EC50: 460 nM
[6]; [11]
  EC50 (OC43, RD): inhibition at the concentration: -62.2 and -76.2 (2×)
[6]; [12]
  EC50 (OC43, RD): inhibition at the concentration: 31.5 and 23.3 and 28
[6]; [13]
  EC50 (OC43, RD): inhibition at the concentration: 73.9 and 79.2 and 79.3
[6]; [14]
  EC50 (OC43, RD): inhibition at the concentration: 69.6 and 71.7 and 71.9
[6]; [15]
  EC50 (OC43, RD): inhibition at the concentration: 83.9 and 85 and 84.5
[6]; [16]
  EC50 (OC43, RD): inhibition at the concentration: 98.4 and 98.5

## CCC(CC)COC(=O)[C@H](C)N[P@](=O)(OC[C@H]1O[C@@](C#N)(c2ccc3c(N)ncnn23)[C@H](O)[C@@H]1O)Oc1ccccc1 [RDV]
[7]; Entry
  time-of-addition, viral inhibition: 67.6 and 36.5 and 35.3
[7]; Full-Time
  time-of-addition, viral inhibition: 99.4 and 98.9 and 99.6
[7]; Post-Entry
  time-of-addition, viral inhibition: 98.3 and 99.4 and 98.6
[8]
  HCoV-OC43 inhibition (Fig5C): 97.17 and 71.11 and 82.55

## Cc1c([C@H](C)[C@@H]2NC[C@@H](C)C[C@H]2O)ccc2c1C[C@H]1[C@H]2CC=C2C[C@@H](O)CC[C@@]21C [Veratramine, veratramine]
[1]
  safe use in antitumour mouse models: safely used
[2]
  EC50: < 80 nM
[3]
  EC50 (229E, Huh-7): inhibition at the concentration: 93.4
  EC50: < 80 nM
[4]
  EC50: 600 nM
[5]; mouse, in vivo
  Body weight changes: 98.5
[6]
  EC50 (OC43, RD): inhibition at the concentration: 99.8 and 99.2
  EC50: 250 nM

## CCC/C=C1\OC(=O)C2=C1CC[C@H]1[C@H]3C=C4C(=O)O/C(=C\CCC)[C@@]4(CC3)[C@@H]21 [levistolide A]
[9]
  CC50 (Huh-7): dose-response value per replicate: 17.6
[10]
  selectivity index (SI): below 25
